This passage reports IC50 results from patent US20250163104A1, “MACROCYCLIC IMMUNOMODULATORS” (priority 2021, published 2025).

The target of this experiment is T1, human PD-1 / PD-L1-Ig binding on Jurkat cell line over-expressing human PD-1 (Jurkat-PD-1) (Homo sapiens, UniProt Q15116).
T1 construct: expressed in transfected cells; host or cells: Jurkat
The experiment is described as follows: Jurkat-PD-1 Cell Binding High-Content Screening Assay (CBA). Type of experiment: cell-based. The following applies: Jurkat-PD-1 cells, PE-labeled PD-L1-Ig 20 nM final; read-out: Jurkat HPD1_PDL1 IC50. The essentials: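 Jurkat cells over-expressing human PD-1, in DMEM/10% FCS, pre-incubated with compound 2 h at 37° C. PE-labeled human PD-L1-Ig (20 nM final) added for 1 h; cells fixed in paraformaldehyde with Hoechst 33342 nuclear stain, washed, and bound fluorescence quantified by high-content imaging.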

*1 amine or outer side, *2 acyl side, *3 side chain or, on linkers, in order; H or OH if unused. Where a SMILES comes first, the peptide text is derived from it. Bridges are numbered along the chain shown (N, C = ends). [ ]: non-standard residue; d: D form. The star is where a group is joined. ξ: configuration not given here. Bip = N[C@@H](Cc1ccc(-c2ccccc2)cc1)C(=O)O; Phe(3-Me) = Cc1cccc(C[C@H](N)C(=O)O)c1; βAsp = O=C(O)[C@H](CC(=O)[*:2])N[*:1]; 3Pal = N[C@@H](Cc1cccnc1)C(=O)O; 4Pal = N[C@@H](Cc1ccncc1)C(=O)O; 2Thi = N[C@@H](Cc1cccs1)C(=O)O; Cha = N[C@@H](CC1CCCCC1)C(=O)O; Cit = NC(=O)NCCC[C@H](N)C(=O)O; Ile(3ξ) = CCC(C)[C@H](N)C(=O)O; Thr(3ξ) = CC(O)[C@H](N)C(=O)O; dDab = NCC[C@@H](N)C(=O)O; Carboxymethyl = O=C(O)C*; Orn = NCCC[C@H](N)C(=O)O; Pra = C#CC[C@H](N)C(=O)O; Dab = NCC[C@H](N)C(=O)O; Abu = CC[C@H](N)C(=O)O; Dap = NC[C@H](N)C(=O)O

T1 sequence (Q15116 25-288): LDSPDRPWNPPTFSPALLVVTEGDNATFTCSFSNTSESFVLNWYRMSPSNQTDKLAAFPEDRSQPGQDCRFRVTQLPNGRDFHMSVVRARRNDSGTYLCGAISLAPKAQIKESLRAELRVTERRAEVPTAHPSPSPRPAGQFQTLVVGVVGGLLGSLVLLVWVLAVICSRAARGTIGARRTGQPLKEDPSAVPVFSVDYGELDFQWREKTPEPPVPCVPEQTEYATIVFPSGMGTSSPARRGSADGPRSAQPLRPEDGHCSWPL

Consider `CC(C)C[C@H]1NC(=O)[C@H](CCCN)NC(=O)[C@H](C(C)C)NC(=O)[C@H](Cc2ccc(-c3ccccc3)cc2)NC(=O)[C@H](C(C)C)NC(=O)[C@H](Cc2c[nH]c3ccccc23)NC(=O)[C@H](CC(=O)O)NC(=O)[C@H](Cc2ccc(OCC(=O)O)cc2)NC(=O)[C@H](Cc2ccc(OCC(=O)O)cc2)NC(=O)CSC[C@@H](C(=O)N[C@@H](C)C(N)=O)NC(=O)[C@H]([C@@H](C)O)NC(=O)[C@H](C(C)C)NC(=O)[C@H](Cc2ccccc2)NC(=O)[C@H](CCN)NC1=O` [Compound 1663] ({CH2CO}-Y(Carboxymethyl)Y(Carboxymethyl)DWV[Bip]V[Orn][dL][Dab]FVTCA-NH2; thioether N-14), for which the IC50 was found to be 11.1 nM. For `CCC(C)[C@@H]1NC(=O)[C@H](Cc2ccc(-c3ccccc3)cc2)NC(=O)[C@H](C(C)C)NC(=O)[C@H](Cc2c[nH]c3ccccc23)NC(=O)[C@H](CC(=O)O)NC(=O)[C@H](Cc2cccnc2)NC(=O)[C@H](Cc2ccncc2)NC(=O)CSC[C@@H](C(=O)N[C@@H](C)C(N)=O)NC(=O)[C@H]([C@@H](C)O)NC(=O)[C@H](C(C)C)NC(=O)[C@H](CC2CCCCC2)NC(=O)[C@H](CCN)NC(=O)[C@@H](CC(C)C)NC(=O)[C@H](CCCN)NC1=O` (stereo partly drawn) [Compound 2232] ({CH2CO}-[4Pal][3Pal]DWV[Bip][Ile(3ξ)][Orn][dL][Dab][Cha]VTCA-NH2; thioether N-14), the IC50 was 13.6 nM.

As to `CCC(C)[C@@H]1NC(=O)[C@H](Cc2ccc(-c3ccccc3)cc2)NC(=O)[C@H](C(C)C)NC(=O)[C@H](Cc2c[nH]c3ccccc23)NC(=O)[C@H](CC(=O)O)NC(=O)[C@H](Cc2ccncc2)NC(=O)[C@H](Cc2ccncc2)NC(=O)CSC[C@@H](C(=O)N[C@@H](C)C(N)=O)NC(=O)[C@H]([C@@H](C)O)NC(=O)[C@H](C(C)C)NC(=O)[C@H](CC2CCCCC2)NC(=O)[C@H](CCN)NC(=O)[C@@H](CC(C)C)NC(=O)[C@H](CCCN)NC1=O` (stereo partly drawn) [Compound 2238] ({CH2CO}-[4Pal][4Pal]DWV[Bip][Ile(3ξ)][Orn][dL][Dab][Cha]VTCA-NH2; thioether N-14), the IC50 was 18.2 nM. For `CC(C)C[C@H]1NC(=O)[C@H](CCCN)NC(=O)[C@H](C(C)C)NC(=O)[C@H](Cc2ccc(-c3ccccc3)cc2)NC(=O)[C@H](C(C)C)NC(=O)[C@H](Cc2c[nH]c3ccccc23)NC(=O)[C@H](CC(=O)O)NC(=O)[C@H](Cc2ccc(OCC(=O)O)cc2)NC(=O)[C@H](C(C)O)NC(=O)CSC[C@@H](C(=O)N[C@H](CC(N)=O)C(N)=O)NC(=O)[C@H](CO)NC(=O)[C@H](C(C)C)NC(=O)[C@H](CC2CCCCC2)NC(=O)[C@H](CCN)NC1=O` (stereo partly drawn) [Compound 2565] ({CH2CO}-[Thr(3ξ)]Y(Carboxymethyl)DWV[Bip]V[Orn][dL][Dab][Cha]VSC[dN]-NH2; thioether N-14) the value was 3.3 nM; for `CC(C)C[C@H]1NC(=O)[C@H](CCCN)NC(=O)[C@H](CCC(=O)O)NC(=O)[C@H](Cc2ccc(-c3ccccc3)cc2)NC(=O)[C@H](C(C)C)NC(=O)[C@H](Cc2cccs2)NC(=O)[C@H](CC(=O)O)NC(=O)[C@H](Cc2ccncc2)NC(=O)[C@H](CN)NC(=O)CSC[C@@H](C(=O)N[C@@H](C)C(N)=O)NC(=O)[C@H]([C@@H](C)O)NC(=O)[C@H](C(C)C)NC(=O)[C@H](CC2CCCCC2)NC(=O)[C@H](CCN)NC1=O` [Compound 2201] ({CH2CO}-[Dap][4Pal]D[2Thi]V[Bip]E[Orn][dL][Dab][Cha]VTCA-NH2; thioether N-14), 22.5 nM; for `Cc1cccc(C[C@@H]2NC(=O)[C@H](CC(=O)O)NC(=O)[C@H](Cc3ccc(OCC(=O)O)cc3)NC(=O)[C@H](CN)NC(=O)CSC[C@@H](C(=O)N[C@@H](CCN)C(N)=O)NC(=O)[C@@H](CCN)NC(=O)[C@H](C(C)C)NC(=O)[C@H](CC3CCCCC3)NC(=O)[C@H](CCN)NC(=O)[C@@H](CC(C)C)NC(=O)[C@H](CCCN)NC(=O)[C@H](Cc3ccc(O)cc3)NC(=O)[C@H](Cc3ccc(-c4ccccc4)cc3)NC(=O)[C@H](Cc3ccc(O)cc3)NC2=O)c1` [Compound 2045] ({CH2CO}-[Dap]Y(Carboxymethyl)D[Phe(3-Me)]Y[Bip]Y[Orn][dL][Dab][Cha]V[dDab]C[Dab]-NH2; thioether N-14), 10.5 nM. In the case of `CC(C)C[C@H]1NC(=O)[C@H](CCCN)NC(=O)[C@H](Cc2cnc[nH]2)NC(=O)[C@H](Cc2ccc(-c3ccccc3)cc2)NC(=O)[C@H](C(C)C)NC(=O)[C@H](Cc2c[nH]c3ccccc23)NC(=O)[C@H](CC(=O)O)NC(=O)[C@H](Cc2ccc(OCC(=O)O)cc2)NC(=O)[C@H](C(C)O)NC(=O)CSC[C@@H](C(=O)N[C@@H](CC(N)=O)C(N)=O)NC(=O)[C@H](CO)NC(=O)[C@H](C(C)C)NC(=O)[C@H](CC2CCCCC2)NC(=O)[C@H](CCN)NC1=O` (stereo partly drawn) [Compound 2561] ({CH2CO}-[Thr(3ξ)]Y(Carboxymethyl)DWV[Bip]H[Orn][dL][Dab][Cha]VSCN-NH2; thioether N-14), the IC50 was found to be 8.2 nM.

For `C#CC[C@H](NC(=O)C[C@H](NC(=O)[C@H](CCN)NC(=O)[C@@H]1CSCC(=O)N[C@@H](Cc2ccc(OCC(=O)O)cc2)C(=O)N[C@@H](Cc2ccncc2)C(=O)N[C@@H](CC(=O)O)C(=O)N[C@@H](Cc2cccc(C)c2)C(=O)N[C@@H](C(C)C)C(=O)N[C@@H](Cc2ccc(-c3ccccc3)cc2)C(=O)N[C@@H](CCCNC(N)=O)C(=O)N[C@@H](CCCN)C(=O)N[C@H](CC(C)C)C(=O)N[C@@H](CCN)C(=O)N[C@@H](CC2CCCCC2)C(=O)N[C@@H](C(C)C)C(=O)N[C@@H]([C@@H](C)O)C(=O)N1)C(=O)O)C(N)=O` [Compound 1768] ({CH2CO}-Y(Carboxymethyl)[4Pal]D[Phe(3-Me)]V[Bip][Cit][Orn][dL][Dab][Cha]VTC[Dab][βAsp][Pra]-NH2; thioether N-14), the IC50 was 10.1 nM. In the case of `CC(C)C[C@@H]1NC(=O)[C@H](CCN)NC(=O)[C@@H](CC(C)C)NC(=O)[C@H](CCCN)NC(=O)[C@H](CCCNC(N)=O)NC(=O)[C@H](Cc2ccc(-c3ccccc3)cc2)NC(=O)[C@H](C(C)C)NC(=O)[C@H](Cc2c[nH]c3ccccc23)NC(=O)[C@H](CC(=O)O)NC(=O)[C@H](Cc2ccc(OCC(=O)O)cc2)NC(=O)[C@H](Cc2ccncc2)NC(=O)CSC[C@@H](C(=O)N[C@@H](C)C(N)=O)NC(=O)[C@H]([C@@H](C)O)NC(=O)[C@H](C(C)C)NC1=O` [Compound 1042] ({CH2CO}-[4Pal]Y(Carboxymethyl)DWV[Bip][Cit][Orn][dL][Dab]LVTCA-NH2; thioether N-14), the IC50 turned out to be 13 nM. The same measure for `CC[C@H](NC(=O)[C@@H]1CSCC(=O)N[C@@H](Cc2cnc[nH]2)C(=O)N[C@@H](Cc2ccc(OCC(=O)O)cc2)C(=O)N[C@@H](CC(=O)O)C(=O)N[C@@H](Cc2c[nH]c3ccccc23)C(=O)N[C@@H](C(C)C)C(=O)N[C@@H](Cc2ccc(-c3ccccc3)cc2)C(=O)N[C@@H](C(C)C)C(=O)N[C@@H](CCCN)C(=O)N[C@H](CC(C)C)C(=O)N[C@@H](CCN)C(=O)N[C@@H](CC2CCCCC2)C(=O)N[C@@H](C(C)C)C(=O)N[C@@H](CO)C(=O)N1)C(N)=O` [Compound 2564] ({CH2CO}-HY(Carboxymethyl)DWV[Bip]V[Orn][dL][Dab][Cha]VSC[Abu]-NH2; thioether N-14): 18.8 nM.
